# Where two headings read alike, the source gives them in different places. Residues, ends and D or L forms follow the SMILES beside them.
# How the values were obtained:
# [1] = system: K. pneumoniae ATCC 700603; assay type: cell-based, Klebsiella pneumoniae
# Excerpt: (§1) Bacteria were cultivated in Luria-Bertani (LB) broth.
# K. pneumoniae 3026 = assay type: cell-based, Klebsiella pneumoniae
# Excerpt: as §1
# sheep red blood cells = experiment: Hemolysis assay; details: red cells of sheep, 1 h
# Method: To evaluate the hemolysis effects of peptides, red blood hemolysis was performed as described with minimum modifications. Sterile defibrated sheep blood was purchased from Guangzhou Hongquan Biotechnology Co., LTD. Blood cells were adjusted to 2 × 10^9 cells/mL in phosphate-buffered saline (PBS, pH 7.4). In total, 98 μL sheep red blood cell suspension was incubated with 2 μL of peptides at different concentrations ranging from 3.13 to 100 µM. After incubation for 1 h at 37 °C, the cells were centrifuged and the absorbance of the supernatant was measured at 450 nm. The value for “zero hemolysis” was determined using sterile PBS, while 100% hemolysis was established using 1.5% (v/v) Triton X-100. Hemolysis of testing sample was calculated as the percentage of Triton X-100-induced hemolysis.
# A. baumannii 1337 = assay type: cell-based, Acinetobacter baumannii
# Excerpt: as §1
# A. baumannii 1318 = assay type: cell-based, Acinetobacter baumannii
# Excerpt: as §1
# MRSA ATCC 43300 = assay type: cell-based, Staphylococcus aureus
# Excerpt: as §1
# MRSA 3393 = assay type: cell-based, Staphylococcus aureus
# Excerpt: as §1
# MRSA USA 300 = assay type: cell-based, Staphylococcus aureus
# Excerpt: as §1
# [2] = system: Gram-negative bacterial strains; assay type: cell-based
# Excerpt: as §1
# MTT cytotoxicity assay = assay type: cell-based, human; details: human; for viability at 72 h, 0.39 µM / viability at 72 h, 0.78 µM / viability at 72 h, 1.57 µM / viability at 72 h, 3.13 µM / viability at 72 h, 6.25 µM / viability at 72 h, 12.5 µM / viability at 72 h, 25 µM / viability at 72 h, 50 µM / viability at 72 h, 100 µM: HEK293T cells
# Method: (§2) To determine the cytotoxicity of the peptides, we used the MTT (3-(4,5)-dimethylthiahiazo (-z-y1)-3,5-di-phenytetrazoliumromide) dye reduction assay against HEK293T cells. In brief, the 100 μL of cells in 96-well plate were incubated for 24 h at 37 °C, 5% CO2, and then peptide solutions (concentrations ranging from 100 to 0.39 μM) were added and further incubated for 72 h. MTT solution (5 mg/mL) was added and further incubated for 4 h. After incubation, the precipitated MTT formazan crystal was dissolved by addition of dimethyl sulfoxide (DMSO). […]
# HEK293T cells = experiment: MTT cytotoxicity assay; assay type: cell-based, human
# Method: as §2
# E. coli S = assay type: cell-based, Escherichia coli
# Excerpt: as §1
# E. coli ATCC 25922 = assay type: cell-based, Escherichia coli
# Excerpt: as §1
# MRSA = assay type: cell-based, Staphylococcus aureus
# Excerpt: as §1
# [3] = OD450, cytotoxicity (Fig 2a), replicates
SMILES,MIC Gram- K. p ATCC 700603 [1],MIC Gram- K. p 3026 (K. pneumoniae 3026),HC10 (concentration inducing 10% hemolysis) (sheep red blood cells),MIC Gram- A. b 1337 (A. baumannii 1337),MIC Gram- A. b 1318 (A. baumannii 1318),MIC Gram+ MRSA ATCC 43300 (MRSA ATCC 43300; ATCC 43300),MIC Gram+ MRSA USA 300 (MRSA USA 300),IC50 at 72 h (MTT cytotoxicity assay),"viability at 72 h, 0.39 µM (MTT cytotoxicity assay; [3])","viability at 72 h, 0.78 µM (MTT cytotoxicity assay; [3])","viability at 72 h, 1.57 µM (MTT cytotoxicity assay; [3])","viability at 72 h, 3.13 µM (MTT cytotoxicity assay; [3])","viability at 72 h, 6.25 µM (MTT cytotoxicity assay; [3])","viability at 72 h, 12.5 µM (MTT cytotoxicity assay; [3])","viability at 72 h, 25 µM (MTT cytotoxicity assay; [3])","viability at 72 h, 50 µM (MTT cytotoxicity assay; [3])","viability at 72 h, 100 µM (MTT cytotoxicity assay; [3])",MIC Gram- E. coli S (E. coli S),MIC Gram- E. coli ATCC 25922 (E. coli ATCC 25922),also measured
CC[C@H](C)[C@H](NC(=O)[C@H](CCCNC(=N)N)NC(=O)[C@H](CCCNC(=N)N)NC(=O)[C@H](CC(C)C)NC(=O)[C@H](Cc1ccccc1)NC(=O)[C@H](Cc1ccccc1)NC(=O)[C@H](Cc1ccccc1)NC(=O)[C@@H](N)Cc1ccccc1)C(=O)N[C@@H](Cc1ccccc1)C(=O)N[C@@H](CCCNC(=N)N)C(N)=O [F-SHf(R^5)-R] (H-FFFFLRRIFR-NH2; N-terminus assumed),12.5 µM,25 µM,36.5 µM,12.5 µM,12.5 µM,1.57 µM,1.57 µM,0.2 µM,35.2%,26.2%,12.3%,9.86%,4.46%,3.13%,3.84%,2.63%,1.58%,12.5 µM,6.25 µM,MIC Gram+ MRSA ATCC 43300 (MRSA ATCC 43300): 1.57 µM; MIC Gram+ MRSA 3393 (MRSA 3393): 1.57 µM; MICs against the tested Gram-negative bacterial strains [2]: 6.25 to 25 µM; toxicity / cytotoxicity against HEK293T cells (in words) (HEK293T cells): high toxicity
CC[C@H](C)[C@H](NC(=O)[C@H](CCCNC(=N)N)NC(=O)[C@H](CCCNC(=N)N)NC(=O)[C@H](CC(C)C)NC(=O)[C@H](Cc1ccccc1)NC(=O)[C@H](CCCNC(=N)N)NC(=O)[C@@H](N)CCCNC(=N)N)C(=O)N[C@@H](Cc1ccccc1)C(=O)N[C@@H](Cc1ccccc1)C(=O)N[C@@H](Cc1ccccc1)C(=O)N[C@@H](Cc1ccccc1)C(N)=O [HT3] (H-RRFLRRIFFFF-NH2; N-terminus assumed),6.25 µM,6.25 µM,> 100.0 µM,6.25 µM,6.25 µM,1.57 µM,3.13 µM,49 µM,94%,98.7%,96.4%,97.8%,94.9%,99.5%,91.4%,59.2%,24.2%,25 µM,6.25 µM,"MIC Gram+ MRSA 3393 (MRSA 3393; 3393): 3.13 µM; MICs against Gram-positive bacterial strains (MRSA): 1.57 to 3.13 µM; MICs against Gram-negative bacterial strains, such as A. baumannii and Klebsiella pneumoniae [2]: 6.25 µM; viability at 72 h, 0.78 µM (MTT cytotoxicity assay; HEK293T, 0.78 µM, read-out: OD450, cytotoxicity (Fig 2a), replicates): 95.8%; viability at 72 h, 12.5 µM (MTT cytotoxicity assay; HEK293T, 12.5 µM, read-out: OD450, cytotoxicity (Fig 2a), replicates): 94.4%"
